ChEMBL document CHEMBL1153340, “Inhibitors of HIV-1 attachment. Part 2: An initial survey of indole substitution patterns” (Bioorg Med Chem Lett, 2009)
In brackets after ≈: the same amount, converted by molar mass.

Columns and labels:
[1] = tested on: Human immunodeficiency virus 1; assay: Antiviral activity against pseudotype HIV1 JRFL infected in human HeLa67 cells expressing CD4/CCR5 after 3 days by luciferase reporter gene assay; assay type: functional, organism-based; conditions: Human immunodeficiency virus 1, JRFL, HeLa67, 72 h
[2] = Terminal half life in rat at 25 mg/kg, po dosed as solution in PEG400/EtOH; assay type: ADME, organism-based; parameters: dose 25 mg/kg, route oral; conditions: in vivo, read-out: beta t1/2
[3] = Permeability across human Caco-2 cells; assay type: ADME, cell-based; conditions: read-out: permeability
[4] = Tmax in dog at 1 mg/kg, po dosed as nanosuspension; assay type: ADME, organism-based, Canis lupus familiaris; parameters: dose 1 mg/kg, route oral; conditions: in vivo
[5] = Oral bioavailability in rat at 5 mg/kg dosed as nanosuspension; assay type: ADME, organism-based; conditions: in vivo
[6] = Oral bioavailability in dog at 1 mg/kg dosed as solution in PEG400/EtOH; assay type: ADME, organism-based, Canis lupus familiaris; conditions: in vivo
[7] = Oral bioavailability in dog at 1 mg/kg dosed as micronized suspension; assay type: ADME, organism-based, Canis lupus familiaris; conditions: in vivo
[8] = Tmax in dog at 1 mg/kg, po dosed as micronized suspension; assay type: ADME, organism-based, Canis lupus familiaris; parameters: dose 1 mg/kg, route oral; conditions: in vivo
[9] = Volume of distribution at steady state in rat at 5 mg/kg, iv dosed as solution in PEG400/EtOH; assay type: ADME, organism-based; parameters: dose 5 mg/kg, route intravenous; conditions: in vivo, read-out: Vdss
[10] = Solubility in poly ethylene glycol 400; assay type: physicochemical; conditions: polyethylene glycol 400
[11] = Oral bioavailability in dog at 1 mg/kg dosed as nanosuspension; assay type: ADME, organism-based, Canis lupus familiaris; conditions: in vivo
[12] = Cmax in rat at 25 mg/kg, po dosed as solution in PEG400/EtOH; assay type: ADME, organism-based; parameters: dose 25 mg/kg, route oral; conditions: in vivo
[13] = Oral bioavailability in rat at 25 mg/kg dosed as solution in PEG400/EtOH; assay type: ADME, organism-based; conditions: in vivo
[14] = Tmax in rat at 5 mg/kg, po dosed as nanosuspension; assay type: ADME, organism-based; parameters: dose 5 mg/kg, route oral; conditions: in vivo
[15] = Tmax in dog at 1 mg/kg, po dosed as solution in PEG400/EtOH; assay type: ADME, organism-based, Canis lupus familiaris; parameters: dose 1 mg/kg, route oral; conditions: in vivo
[16] = Tmax in rat at 25 mg/kg, po dosed as solution in PEG400/EtOH; assay type: ADME, organism-based; parameters: dose 25 mg/kg, route oral; conditions: in vivo
[17] = Tmax in rat at 5 mg/kg, po dosed as solution in PEG400/EtOH; assay type: ADME, organism-based; parameters: dose 5 mg/kg, route oral; conditions: in vivo
[18] = Cmax in dog at 1 mg/kg, po dosed as micronized suspension; assay type: ADME, organism-based, Canis lupus familiaris; parameters: dose 1 mg/kg, route oral; conditions: in vivo
[19] = Cmax in dog at 1 mg/kg, po dosed as nanosuspension; assay type: ADME, organism-based, Canis lupus familiaris; parameters: dose 1 mg/kg, route oral; conditions: in vivo
[20] = Clearance in rat at 5 mg/kg, iv dosed as solution in PEG400/EtOH; assay type: ADME, organism-based; parameters: dose 5 mg/kg, route intravenous; conditions: in vivo
[21] = Cmax in dog at 1 mg/kg, po dosed as solution in PEG400/EtOH; assay type: ADME, organism-based, Canis lupus familiaris; parameters: dose 1 mg/kg, route oral; conditions: in vivo
[22] = Mean residence time in rat at 5 mg/kg, iv dosed as solution in PEG400/EtOH; assay type: ADME, organism-based; parameters: dose 5 mg/kg, route intravenous; conditions: in vivo
[23] = Oral bioavailability in rat at 5 mg/kg dosed as solution in PEG400/EtOH; assay type: ADME, organism-based; conditions: in vivo
[24] = Solubility in water; assay type: physicochemical; conditions: buffer
[25] = Terminal half life in rat at 5 mg/kg, iv dosed as solution in PEG400/EtOH; assay type: ADME, organism-based; parameters: dose 5 mg/kg, route intravenous; conditions: in vivo, read-out: beta t1/2
[26] = Cmax in rat at 5 mg/kg, po dosed as nanosuspension; assay type: ADME, organism-based; parameters: dose 5 mg/kg, route oral; conditions: in vivo
[27] = Cytotoxicity against human HeLa67 cells expressing CD4/CCR5 after 3 days by XTT assay; assay type: cell-based

SMILES: O=C(C(=O)N1CCN(C(=O)c2ccccc2)CC1)c1c[nH]c2cccc(F)c12
- EC50 [1]: 2.59 nM
- half-life [2]: 1.2 h
- Papp [3]: 10 ×10⁻⁶ cm/s
- Tmax [4]: 1.8 h
- bioavailability [5]: 4%
- bioavailability [6]: 89%
- bioavailability [7]: 12%
- Tmax [8]: 4 h
- Vd [9]: 0.99 L/kg
- solubility [10]: 4600 µg/mL (≈ 12.1 mM)
- bioavailability [11]: 36%
- Cmax [12]: 649 ng/mL
- bioavailability [13]: 17%
- Tmax [14]: 2.83 h
- Tmax [15]: 1.2 h
- Tmax [16]: 0.883 h
- Tmax [17]: 0.617 h
- Cmax [18]: 60 ng/mL
- Cmax [19]: 160 ng/mL
- clearance [20]: 48 mL/min/kg
- Cmax [21]: 560 ng/mL
- MRT [22]: 0.35 h
- bioavailability [23]: 9%
- solubility [24]: 0.005 µg/mL (≈ 1.32e-05 mM)
- half-life [25]: 0.467 h
- Cmax [26]: 18 ng/mL
- CC50 at 72 h [27]: > 300000 nM
